Reference: article PMC12379310 (Virology Journal, 2025)

Biological target: human ether-α-go-go related gene (hERG) potassium channel (Kv11.1) (Homo sapiens, UniProt Q12809)
Assay: automated whole-cell patch clamp
Format: cell-based

Sequence of human ether-α-go-go related gene (hERG) potassium channel (Kv11.1) (Q12809 whole entry): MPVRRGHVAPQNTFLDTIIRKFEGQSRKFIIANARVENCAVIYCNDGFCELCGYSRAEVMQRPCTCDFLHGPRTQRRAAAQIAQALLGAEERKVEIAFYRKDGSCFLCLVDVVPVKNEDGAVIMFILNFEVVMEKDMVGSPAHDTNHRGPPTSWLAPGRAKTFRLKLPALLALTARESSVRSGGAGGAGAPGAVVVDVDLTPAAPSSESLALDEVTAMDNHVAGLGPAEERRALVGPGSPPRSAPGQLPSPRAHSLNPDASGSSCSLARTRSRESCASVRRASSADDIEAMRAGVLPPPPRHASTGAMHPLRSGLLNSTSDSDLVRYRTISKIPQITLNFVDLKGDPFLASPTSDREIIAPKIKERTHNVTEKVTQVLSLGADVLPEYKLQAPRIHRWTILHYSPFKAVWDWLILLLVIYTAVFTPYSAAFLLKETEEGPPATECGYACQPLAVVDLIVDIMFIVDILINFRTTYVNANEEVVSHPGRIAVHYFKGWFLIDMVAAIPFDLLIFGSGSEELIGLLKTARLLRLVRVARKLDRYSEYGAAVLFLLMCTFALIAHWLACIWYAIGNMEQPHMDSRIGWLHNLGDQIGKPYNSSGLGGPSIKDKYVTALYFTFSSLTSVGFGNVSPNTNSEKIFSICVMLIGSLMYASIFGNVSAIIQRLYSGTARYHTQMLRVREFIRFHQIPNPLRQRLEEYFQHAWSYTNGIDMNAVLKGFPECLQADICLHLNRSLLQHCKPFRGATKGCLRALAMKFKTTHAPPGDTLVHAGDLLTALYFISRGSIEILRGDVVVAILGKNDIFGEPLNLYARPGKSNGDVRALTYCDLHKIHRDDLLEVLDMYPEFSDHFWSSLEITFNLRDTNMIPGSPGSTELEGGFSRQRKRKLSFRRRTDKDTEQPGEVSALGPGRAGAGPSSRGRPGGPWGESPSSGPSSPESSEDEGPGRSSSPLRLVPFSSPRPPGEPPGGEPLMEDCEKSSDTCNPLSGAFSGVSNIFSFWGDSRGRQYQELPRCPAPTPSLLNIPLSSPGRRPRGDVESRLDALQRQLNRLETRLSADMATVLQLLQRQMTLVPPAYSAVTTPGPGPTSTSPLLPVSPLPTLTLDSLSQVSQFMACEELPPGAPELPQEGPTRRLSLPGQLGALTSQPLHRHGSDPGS

In the case of `CCOC(=O)c1c(CSc2ccccc2)n(C)c2cc(Br)c(O)c(CN(C)C)c12` [Arbidol], the IC50 is reported as 303 nM.
